Where two headings read alike, the source gives them in different places.
Tests used:
[1] = biological target: T1, beta-catenin/TCF4 engagement (Homo sapiens, UniProt P35222); assay: Nano-BRET target engagement assay (B-cat-Halo & TCF4-Luc in HEK293 cells); assay type: cell-based
T1 construct: expressed in transfected cells; host or cells: HEK293
T1 sequence (P35222 1-781): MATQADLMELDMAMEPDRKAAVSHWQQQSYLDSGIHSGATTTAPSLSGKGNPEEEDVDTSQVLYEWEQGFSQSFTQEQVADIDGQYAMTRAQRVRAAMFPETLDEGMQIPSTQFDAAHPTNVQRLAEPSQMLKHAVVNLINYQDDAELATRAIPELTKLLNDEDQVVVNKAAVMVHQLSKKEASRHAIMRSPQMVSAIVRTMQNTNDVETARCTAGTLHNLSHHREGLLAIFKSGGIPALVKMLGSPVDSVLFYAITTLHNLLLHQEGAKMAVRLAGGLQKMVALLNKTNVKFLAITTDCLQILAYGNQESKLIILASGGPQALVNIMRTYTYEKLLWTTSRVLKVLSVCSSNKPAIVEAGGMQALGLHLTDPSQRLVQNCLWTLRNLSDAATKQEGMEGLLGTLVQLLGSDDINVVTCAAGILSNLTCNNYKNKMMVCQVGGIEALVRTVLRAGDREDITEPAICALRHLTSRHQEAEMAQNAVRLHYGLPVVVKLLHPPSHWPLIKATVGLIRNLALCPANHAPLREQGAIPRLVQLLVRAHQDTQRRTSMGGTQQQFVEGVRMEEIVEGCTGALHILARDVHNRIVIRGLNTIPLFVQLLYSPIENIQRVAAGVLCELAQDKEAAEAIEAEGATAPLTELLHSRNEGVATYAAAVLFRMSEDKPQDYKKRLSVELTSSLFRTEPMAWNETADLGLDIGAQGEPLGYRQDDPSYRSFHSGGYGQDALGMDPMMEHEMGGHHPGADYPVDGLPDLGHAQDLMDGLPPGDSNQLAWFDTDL

[2] = biological target: T2, full-length beta-Catenin (Uniprot ID P35222) (Homo sapiens, UniProt P35222); assay: Fluorescence polarization IC50 (beta-catenin / 5FAM-TCF4 10-53 competition); assay type: binding
T2 construct: 10 nM full-length beta-Catenin (Uniprot ID P35222)
T2 sequence (P35222 1-781): T1 sequence (P35222 1-781)

CHI Log D procedure = assay type: physicochemical; conditions: for CHI Log D: pH 7.4; for chromatographic logD: pH 7.4, CHI Log D
[3] = fluorescence polarization, beta-catenin, read-out: FP EC50
[4] = absolute IC50, read-out: NanoBRET Abs IC50

| SMILES | IC50 ([1]; read-out: NanoBRET Abs IC50) | IC50 [2, 3] | IC50 ([2]; read-out: beta-Catenin FP IC50) | CHI Log D (CHI Log D procedure) | IC50 ([1]; read-out: NanoBRET IC50) | chromatographic logD (CHI Log D procedure) | IC50 [1, 4] |
| --- | --- | --- | --- | --- | --- | --- | --- |
| CC(=O)N1CCC[C@]12CC=CCCCC1(CCCC=CCCCOC(=O)N3CC[C@@](C(=O)N[C@@H](Cc4ccsc4)C(=O)N[C@@H](Cc4csc5ccccc45)C(=O)N[C@@H](CCC(N)=O)C(=O)NCCCCCCN)(C3)NC(=O)[C@H](CC(N)=O)NC(=O)[C@H](Cc3ccccc3)NC(=O)[C@H](C)NC(=O)[C@H](C)NC(=O)[C@H](CC(=O)O)NC(=O)[C@H](CC(=O)O)NC1=O)NC(=O)[C@H](CC(C)(C)C)NC(=O)[C@H](CC(=O)O)NC2=O (stereo partly drawn) [I-881, Ac-PL3-Asp-Npg-B5-Asp-Asp-Ala-Ala-Phe-Asn-PyrS2-3Thi-BztA-Gln-6AmHex] | 23800 nM | 10 nM | 10 nM | −0.008 | – | – | – |
| CC(=O)N1CCC[C@]12CC=CCCCC1(CCCC=CCCCOC(=O)N3CC[C@@](C(=O)N[C@@H](Cc4ccsc4)C(=O)N[C@@H](Cc4csc5ccccc45)C(=O)N[C@@H](CCC(N)=O)C(=O)NCCCCCCN)(C3)NC(=O)[C@H](CC(N)=O)NC(=O)[C@H](Cc3ccccc3)NC(=O)[C@H](C)NC(=O)[C@H](C)NC(=O)[C@H](CC(=O)O)NC(=O)[C@H](CC(=O)O)NC1=O)NC(=O)[C@H](CC(C)(C)C)NC(=O)[C@H](CC(=O)O)NC2=O (stereo partly drawn) [I-882, Ac-PL3-Asp-Npg-B5-Asp-Asp-Ala-Ala-Phe-Asn-PyrS2-3Thi-BztA-Gln-6AmHex] | 41400 nM | 22 nM | 22 nM | 2.028 | 22500 nM | – | – |
| COCCOCCOCCOCCC(=O)NCCCC[C@@H]1NC(=O)[C@H](C)NC(=O)[C@H](CC(=O)O)NC(=O)[C@H](CC(=O)O)NC(=O)C2(CCCC=CCCCOC(=O)N3CC[C@@](C(=O)N[C@@H](Cc4ccsc4)C(=O)N[C@@H](Cc4csc5ccccc45)C(=O)N[C@@H](CCC(N)=O)C(N)=O)(C3)NC(=O)[C@H](CC(N)=O)NC(=O)[C@H](Cc3ccccc3)NC1=O)CCCC=CC[C@]1(CCCN1C(C)=O)C(=O)N[C@@H](CC(=O)O)C(=O)N[C@@H](CC(C)(C)C)C(=O)N2 (stereo partly drawn) [I-894, Ac-PL3-Asp-Npg-B5-Asp-Asp-Ala-[mPEG4]Lys-Phe-Asn-PyrS2-3Thi-BztA-Gln-NH2] | > 20000 nM | – | 15 nM | – | – | 1.45 | – |
| COCCOCCC(=O)NCCCC[C@H](NC(=O)[C@H](CCC(N)=O)NC(=O)[C@H](Cc1csc2ccccc12)NC(=O)[C@H](Cc1ccsc1)NC(=O)[C@]12CCN(C1)C(=O)OCCCC=CCCCC1(CCCC=CC[C@]3(CCCN3C(C)=O)C(=O)N[C@@H](CC(=O)O)C(=O)N[C@@H](CC(C)(C)C)C(=O)N1)C(=O)N[C@@H](CC(=O)O)C(=O)N[C@@H](CC(=O)O)C(=O)N[C@@H](C)C(=O)N[C@@H](C)C(=O)N[C@@H](Cc1ccccc1)C(=O)N[C@@H](CC(N)=O)C(=O)N2)C(N)=O (stereo partly drawn) [I-911, Ac-PL3-Asp-Npg-B5-Asp-Asp-Ala-Ala-Phe-Asn-PyrS2-3Thi-BztA-Gln-[mPEG2]Lys-NH2] | 22900 nM | – | 12 nM | – | – | 1.82 | – |
| CC(=O)N1CCC[C@]12CC=CCCCC1(CCCC=CCCCOC(=O)N3CC[C@@](C(=O)N[C@@H](Cc4ccccc4Cl)C(=O)N[C@@H](Cc4csc5ccccc45)C(=O)N[C@@H](CCC(N)=O)C(N)=O)(C3)NC(=O)[C@H](Cc3ccccc3)NC(=O)[C@H](Cc3ccccc3)NC(=O)[C@H](C)NC(=O)[C@H](C)NC(=O)[C@H](CN(CC(=O)O)CC(F)(F)F)NC(=O)[C@H](CC(=O)O)NC1=O)NC(=O)[C@H](CC(C)(C)C)NC(=O)[C@H](CC(=O)O)NC2=O (stereo partly drawn) [I-923, Ac-PL3-Asp-Npg-B5-Asp-TfeGA-Ala-Ala-Phe-Phe-PyrS2-2C1F-BztA-Gln-NH2] | – | – | 27 nM | – | – | 2.46 | 6000 nM |
| CC(=O)N1CCC[C@]12CC=CCCCC1(CCCC=CCCCOC(=O)N3CC[C@@](C(=O)N[C@@H](Cc4cccc(Cl)c4)C(=O)N[C@@H](Cc4csc5ccccc45)C(=O)N[C@@H](CCC(N)=O)C(N)=O)(C3)NC(=O)[C@H](CC(N)=O)NC(=O)[C@H](Cc3ccccc3)NC(=O)[C@H](C)NC(=O)[C@H](C)NC(=O)[C@H](CN(CC(=O)O)CC(F)(F)F)NC(=O)[C@H](CC(=O)O)NC1=O)NC(=O)[C@H](CC(C)(C)C)NC(=O)[C@H](CC(=O)O)NC2=O (stereo partly drawn) [I-925, Ac-PL3-Asp-Npg-B5-Asp-TfeGA-Ala-Ala-Phe-Asn-PyrS2-3C1F-BztA-Gln-NH2] | 20000 nM | 21 nM | 21 nM | 2.344 | – | – | – |
| CC(=O)N1CCC[C@]12CC=CCCCC1(CCCC=CCCCOC(=O)N3CC[C@@](C(=O)N[C@@H](Cc4cccc(Cl)c4)C(=O)N[C@@H](Cc4csc5ccccc45)C(=O)N[C@@H](CCC(N)=O)C(N)=O)(C3)NC(=O)[C@H](CC(N)=O)NC(=O)[C@H](Cc3ccccc3)NC(=O)[C@H](C)NC(=O)[C@H](C)NC(=O)[C@H](CN(CC(=O)O)CC(F)(F)F)NC(=O)[C@H](CC(=O)O)NC1=O)NC(=O)[C@H](CC(C)(C)C)NC(=O)[C@H](CC(=O)O)NC2=O (stereo partly drawn) [I-926, Ac-PL3-Asp-Npg-B5-Asp-TfeGA-Ala-Ala-Phe-Asn-PyrS2-3C1F-BztA-Gln-NH2] | – | 43 nM | 43 nM | 2.406 | 17100 nM | – | – |
| CC(=O)N1CCC[C@]12CC=CCCCC1(CCCC=CCCCOC(=O)N3CC[C@@](C(=O)N[C@@H](Cc4ccccc4C(F)(F)F)C(=O)N[C@@H](Cc4csc5ccccc45)C(=O)N[C@@H](CCC(N)=O)C(N)=O)(C3)NC(=O)[C@H](CC(N)=O)NC(=O)[C@H](Cc3ccccc3)NC(=O)[C@H](C)NC(=O)[C@H](C)NC(=O)[C@H](CN(CC(=O)O)CC(F)(F)F)NC(=O)[C@H](CC(=O)O)NC1=O)NC(=O)[C@H](CC(C)(C)C)NC(=O)[C@H](CC(=O)O)NC2=O (stereo partly drawn) [I-928, Ac-PL3-Asp-Npg-B5-Asp-TfeGA-Ala-Ala-Phe-Asn-PyrS2-2F3MeF-BztA-Gln-NH2] | 6100 nM | 21 nM | 21 nM | 2.38 | 5000 nM | – | – |
| CC(=O)N1CCC[C@]12CC=CCCCC1(CCCC=CCCCCCC[C@@](C)(C(=O)N[C@@H](Cc3ccccc3Cl)C(=O)N[C@@H](Cc3csc4ccccc34)C(=O)N[C@@H](CCC(N)=O)C(N)=O)NC(=O)[C@H](CC(N)=O)NC(=O)[C@H](Cc3ccccc3)NC(=O)[C@H](C)NC(=O)[C@H](C)NC(=O)[C@H](CN(CC(=O)O)CC(F)(F)F)NC(=O)[C@H](CC(=O)O)NC1=O)NC(=O)[C@H](CC(C)(C)C)NC(=O)[C@H](CC(=O)O)NC2=O (stereo partly drawn) [I-929, Ac-PL3-Asp-Npg-B5-Asp-TfeGA-Ala-Ala-Phe-Asn-S8-2C1F-BztA-Gln-NH2] | 10300 nM | – | 23 nM | – | 7000 nM | 2.74 | – |
| CC(=O)N1CCC[C@]12CC=CCCCC1(CCCC=CCCCCCC[C@@](C)(C(=O)N[C@@H](Cc3ccccc3Cl)C(=O)N[C@@H](Cc3csc4ccccc34)C(=O)N[C@@H](CCC(N)=O)C(N)=O)NC(=O)[C@H]([C@@H](C)O)NC(=O)[C@H](Cc3ccccc3)NC(=O)[C@H](C)NC(=O)[C@H](C)NC(=O)[C@H](CN(CC(=O)O)CC(F)(F)F)NC(=O)[C@H](CC(=O)O)NC1=O)NC(=O)[C@H](CC(C)(C)C)NC(=O)[C@H](CC(=O)O)NC2=O (stereo partly drawn) [I-930, Ac-PL3-Asp-Npg-B5-Asp-TfeGA-Ala-Ala-Phe-Thr-S8-2C1F-BztA-Gln-NH2] | 13500 nM | – | 37 nM | – | 5600 nM | 2.96 | – |
| CC(=O)N1CCC[C@]12CC=CCCCC1(CCCC=CCCCCCC[C@@](C)(C(=O)N[C@@H](Cc3ccccc3Br)C(=O)N[C@@H](Cc3csc4ccccc34)C(=O)N[C@@H](CCC(N)=O)C(N)=O)NC(=O)[C@H](CC(N)=O)NC(=O)[C@H](Cc3ccccc3)NC(=O)[C@H](C)NC(=O)[C@H](C)NC(=O)[C@H](CN(CC(=O)O)CC(F)(F)F)NC(=O)[C@H](CC(=O)O)NC1=O)NC(=O)[C@H](CC(C)(C)C)NC(=O)[C@H](CC(=O)O)NC2=O (stereo partly drawn) [I-932, Ac-PL3-Asp-Npg-B5-Asp-TfeGA-Ala-Ala-Phe-Asn-S8-2BrF-BztA-Gln-NH2] | – | – | 35 nM | – | – | 2.77 | 11400 nM |
| CC(=O)N1CCC[C@]12CC=CCCCC1(CCCC=CCCCCCC[C@@](C)(C(=O)N[C@@H](Cc3cccc(Cl)c3)C(=O)N[C@@H](Cc3csc4ccccc34)C(=O)N[C@@H](CCC(N)=O)C(N)=O)NC(=O)[C@H](CC(N)=O)NC(=O)[C@H](Cc3ccccc3)NC(=O)[C@H](C)NC(=O)[C@H](C)NC(=O)[C@H](CN(CC(=O)O)CC(F)(F)F)NC(=O)[C@H](CC(=O)O)NC1=O)NC(=O)[C@H](CC(C)(C)C)NC(=O)[C@H](CC(=O)O)NC2=O (stereo partly drawn) [I-933, Ac-PL3-Asp-Npg-B5-Asp-TfeGA-Ala-Ala-Phe-Asn-S8-3C1F-BztA-Gln-NH2] | 22200 nM | – | 168 nM | – | > 20000 nM | 3.03 | – |
